# According to US5159081A, “Intermediates of peripherally selective N-carbonyl-3,4,4-trisubstituted piperidine opioid antagonists” (Eli Lilly and Company, priority 1991, dated 1992):
# Structures can show the parent of a compound that is named as a salt. Where two headings read alike, the source gives them in different places.
# What was measured:
# [1] = target: T1, opioid receptor (Mus musculus, UniProt P42866); assay: in vivo; parameters: species or system CF-1 male mice; details: sc
# T1 construct: Five CF-1 male mice (Charles River, Portage, MI); from tissue; host or cells: living CF-1 male mice (whole animal, endogenous receptor)
# T1 sequence (P42866 whole entry): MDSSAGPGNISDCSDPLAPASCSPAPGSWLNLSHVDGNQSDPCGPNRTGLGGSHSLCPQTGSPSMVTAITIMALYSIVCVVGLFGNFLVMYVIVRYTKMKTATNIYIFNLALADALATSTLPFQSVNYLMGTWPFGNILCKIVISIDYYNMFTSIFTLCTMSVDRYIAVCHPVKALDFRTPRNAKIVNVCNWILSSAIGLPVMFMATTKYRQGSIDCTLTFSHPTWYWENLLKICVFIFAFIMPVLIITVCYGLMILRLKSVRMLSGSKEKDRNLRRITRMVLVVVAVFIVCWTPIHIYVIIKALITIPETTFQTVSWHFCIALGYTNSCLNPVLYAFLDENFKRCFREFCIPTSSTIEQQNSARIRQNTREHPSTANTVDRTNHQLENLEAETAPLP
# [2] = tested on: peripheral opioid receptors; assay: mouse diarrhea test: precipitated diarrhea in morphine-maintained mice (peripheral opioid activity); type: in vivo
# [3] = target: T2, mu receptor (Rattus norvegicus, UniProt P33535); assay: Naloxone [3H] opioid receptor binding assay (mu receptor); parameters: species or system rat (male Sprague Dawley); details: 20 min; for Ki: rat whole brain minus cerebellum, pH 7.4, 37° C., read-out: Ki
# T2 construct: The brain tissue, rat whole brain minus cerebellum for mu was homogenized; from tissue; host or cells: brain minus cerebellum of male Sprague Dawley rats, homogenate fraction
# T2 sequence (P33535 whole entry): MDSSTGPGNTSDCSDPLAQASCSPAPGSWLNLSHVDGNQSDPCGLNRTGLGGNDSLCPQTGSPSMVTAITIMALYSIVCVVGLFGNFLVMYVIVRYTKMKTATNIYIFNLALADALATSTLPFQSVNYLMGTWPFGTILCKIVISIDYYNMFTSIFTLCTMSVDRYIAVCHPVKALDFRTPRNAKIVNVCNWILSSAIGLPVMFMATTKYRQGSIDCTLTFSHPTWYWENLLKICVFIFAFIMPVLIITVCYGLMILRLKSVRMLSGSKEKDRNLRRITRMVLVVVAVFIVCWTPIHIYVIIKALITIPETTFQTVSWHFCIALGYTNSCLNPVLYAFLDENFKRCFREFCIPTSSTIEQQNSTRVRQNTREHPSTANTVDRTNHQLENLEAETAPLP
# [4] = pH 7.4, read-out: % displacement at 10 nM
# [5] = pH 7.4, read-out: % displacement at 100 nM
# [6] = mouse writhing test, dose of antagonist that reduced inhibition of writhing by 1.25 mg/kg morphine sulfate to 50%, s.c. 20 min before acetic acid, read-out: AD50 (the source's name)
# [7] = AD50 mouse writhing / ED50 mouse diarrhea, higher = greater relative peripheral antagonism
# [8] = mouse writhing test, […], s.c. 20 min before acetic acid, read-out: AD50 (the source's name)
# [9] = pH 7.4, 100 nM test compound, [3H]naloxone 0.5 nM, […], read-out: % displacement at 100 nM
Structure (SMILES),"ED50 ([1]; mouse, read-out: AD50) [mg/kg]","Ratio (ratio of AD50 to ED50) ([2]; mouse, in vivo)","inhibition at 0.01 µM [3, 4] [%]","inhibition at 0.1 µM [3, 5] [%]","ED50 [1, 6] [mg/kg]","Ratio (ratio of AD50 to ED50) [2, 7]","Ki ([3]; […], [3H]naloxone 0.5 nM) [nM]","ED50 [1, 8] [mg/kg]","inhibition at 0.1 µM [3, 9] [%]","inhibition at 0.01 µM ([3]; pH 7.4, 10 nM test compound, [3H]naloxone 0.5 nM, […], read-out: % displacement at 10 nM) [%]","inhibition at 0.01 µM ([3]; pH 7.4, 10 nM test compound, [3H]naloxone 0.5 nM, mu receptor, read-out: % displacement at 10 nM) [%]","inhibition at 0.1 µM ([3]; pH 7.4, 100 nM test compound, [3H]naloxone 0.5 nM, mu receptor, read-out: % displacement at 100 nM) [%]"
"C[C@H]1CN(CCN(C(=O)CCCC(=O)O)c2ccccc2)CC[C@@]1(C)c1cccc(O)c1 (relative stereo) [Example 20, Trans-5-(phenyl-(2-(4-(3-hydroxyphenyl)-3,4-dimethyl-1-piperidinyl)ethyl)amino)-5-oxopentanoic acid monohydrate]",2.1,35,95,99,,,,,,,,
"C[C@H]1CN(CCN(C(=O)CCC(=O)O)C2CCCCC2)CC[C@@]1(C)c1cccc(O)c1 (relative stereo) [Example 22, 4-(Cyclohexyl-(2-(trans-4-(3-hydroxyphenyl)-3,4-dimethyl-1-piperidinyl)ethyl)amino)-4-oxobutanoic acid monohydrate]",,,51,93,1.25,63,3.59,,,,,
"C[C@H]1CN(CCN(C(=O)CCCC(=O)O)C2CCCCC2)CC[C@@]1(C)c1cccc(O)c1 (relative stereo) [Example 23, 5-(Cyclohexyl-(2-(trans-4-(3-hydroxyphenyl)-3,4-dimethyl-1-piperidinyl)ethyl)amino)-5-oxopentanoic acid monohydrate]",,,77,100,> 1.25,> 5,4.38,,,,,
"C[C@H]1CN(CCCN(C(=O)CCCC(=O)O)C2CCCCC2)CC[C@@]1(C)c1cccc(O)c1 (relative stereo) [Example 25, 5-(cyclohexyl-(3-(trans-4-(3-hydroxyphenyl)-3,4-dimethyl-1-piperidinyl)propyl)amino)-5-oxopentanoic acid]",,,77,93,,10,1.18,0.61,,,,
"C[C@H]1CN(CCN(CC2CCCCC2)C(=O)CCC(=O)O)CC[C@@]1(C)c1cccc(O)c1 (relative stereo) [Example 26, 4-(cyclohexylmethyl-(2-(trans-4-(3-hydroxyphenyl)-3,4-dimethyl-1-piperidinyl)ethyl)amino)-4-oxobutanoic acid monohydrate]",,,73,100,,72,1.91,3.6,,,,
"C[C@H]1CN(CCCN(CC2CCCCC2)C(=O)CCCC(=O)O)CC[C@@]1(C)c1cccc(O)c1 (relative stereo) [Example 27, Trans-5-(cyclohexylmethyl(3-(4-(3-hydroxyphenyl)-3,4-dimethyl-1-piperidinyl)propyl)amino)-5-oxopentanoic acid monohydrate]",,,63,93,,61,8,11,,,,
"CC(C)OC(=O)CCC(=O)N(CCN1CC[C@@](C)(c2cccc(O)c2)[C@@H](C)C1)C1CCCCC1 (relative stereo) [Example 30, 4-(Cyclohexyl-(2-(trans-4-(3-hydroxyphenyl)-3,4-dimethyl-1-piperidinyl)ethyl)amino)-4-oxobutanoic acid 1-methyl-ethyl ester]",,,79,96,,> 40,11,12.4,,,,
"CCCOC(=O)CCC(=O)N(CCN1CC[C@@](C)(c2cccc(O)c2)[C@@H](C)C1)C1CCCCC1 (relative stereo) [Example 31, 4-(Cyclohexyl-(2-(trans-4-(3-hydroxyphenyl)-3,4-dimethyl-1-piperidinyl)ethyl)amino)-4-oxobutanoic acid propyl ester]",,,82,,,> 200,2.52,> 40,97,,,
"CCOC(=O)CCCC(=O)N(CCCN1CC[C@@](C)(c2cccc(O)c2)[C@@H](C)C1)C1CCCCC1 (relative stereo) [Example 33, 5-(Cyclohexyl-(3-(trans-4-(3-hydroxyphenyl)-3,4-dimethyl-1-piperidinyl)propyl)amino)-5-oxopentanoic acid ethyl ester monohydrochloride]",,,,99,,122,0.26,3.67,,83,,
"C[C@H]1CN(CCN(C(=O)CCC(N)=O)C2CCCCC2)CC[C@@]1(C)c1cccc(O)c1 (relative stereo) [Example 35, N-Cyclohexyl-N-(2-(trans-4-(3-hydroxyphenyl)-3,4-dimethyl-1-piperidinyl)ethyl)butanediamide monohydrochloride]",,,80,99,> 1.25,> 3,2.15,,,,,
"C[C@H]1CN(CCCN(C(=O)CCCC(N)=O)C2CCCCC2)CC[C@@]1(C)c1cccc(O)c1 (relative stereo) [Example 37, N-(3-(trans-4-(3-hydroxyphenyl)-3,4-dimethyl-1-piperidinyl)propyl)-N-cyclohexylpentanediamide monohydrochloride monohydrate]",,,88,100,,256,0.61,12.8,,,,
"CNC(=O)CNC(=O)CC(=O)N(CCN1CC[C@@](C)(c2cccc(O)c2)[C@@H](C)C1)C1CCCCC1 (relative stereo) [Example 38, N-cyclohexyl-N-(2-(trans-4-(3-hydroxyphenyl)-3,4-dimethyl-1-piperidinyl)ethyl)-N'-(2-(methylamino)-2-oxoethyl)propanediamide monohydrochloride]",,,79,,,1605,2.98,28.9,98,,,
"CC(C)CC(=O)NCCCC(=O)N(CCN1CC[C@@](C)(c2cccc(O)c2)[C@@H](C)C1)C1CCCCC1 (relative stereo) [Example 40, hydrochloride]",,3,87,100,,,1.16,2.2,,,,
"CCOC(=O)CCCC(=O)NC(CCN1CC[C@@](C)(c2cccc(O)c2)[C@@H](C)C1)CC(C)C (single isomer, unassigned) [Example 3A, 5-((1-(2-(trans-4-(3-hydroxyphenyl)-3,4-dimethyl-1-piperidinyl)ethyl)-3-methylbutyl)amino)-5-oxopentanoic acid ethyl ester monohydrochloride]",,,100,100,,89,0.3,14.2,,,,
"CCOC(=O)CCCC(=O)NC(CCN1CC[C@@](C)(c2cccc(O)c2)[C@@H](C)C1)CC(C)C (stereo in doubt) [Example 3B, 5-((1-(2-(trans-4-(3-hydroxyphenyl)-3,4-dimethyl-1-piperidinyl)ethyl)-3-methylbutyl)amino)-5-oxopentanoic acid ethyl ester monohydrochloride]",,,93,99,,111,0.86,15.5,,,,
"C[C@H]1CN(CCC(NC(=O)CCCC(=O)O)C2CCCCC2)CC[C@@]1(C)c1cccc(O)c1 (stereo in doubt) [Example 5, 5-((3-(trans-4-(3-hydroxyphenyl)-3,4-dimethyl-1-piperidinyl)-1-cyclohexylpropyl)amino)-5-oxo-pentanoic acid monohydrochloride monohydrate]",,,100,100,,> 1666,0.3,> 20,,,,
"CC(=O)NC(CCN1CC[C@@](C)(c2cccc(O)c2)[C@@H](C)C1)c1ccccc1 (stereo in doubt) [Example 6, N-(3-(trans-4-(3-hydroxyphenyl)-3,4-dimethyl-1-piperidinyl)-1-phenylpropyl)acetamide]",,,82,94,,428,6.49,30,,,,
"C[C@H]1CN(CCC(CC2CCCCC2)NC(=O)CCCC(=O)O)CC[C@@]1(C)c1cccc(O)c1 (stereo in doubt) [Example 7, 5-((1-(cyclohexylmethyl)-3-(trans-4-(3-hydroxyphenyl)-3,4-dimethyl-1-piperidinyl)propyl)amino)-5-oxopentanoic acid monohydrochloride monohydrate]",,,99,100,,19,0.63,8.62,,,,
CCOC(=O)CCCC(=O)N[C@@H](CC1CCCCC1)CN1CC[C@](C)(c2cccc(O)c2)[C@H](C)C1 [Example 51],,,73,97,,,,> 40,,,,
C[C@H]1CN(C[C@H](CC2CCCCC2)NC(=O)CCCC(=O)OCC(=O)N(C)C)CC[C@@]1(C)c1cccc(O)c1 [Example 64],,,81,94,,,1.51,13.5,,,,
CC(=O)OC(C)OC(=O)CCCC(=O)N[C@@H](CC1CCCCC1)CN1CC[C@@](C)(c2cccc(O)c2)[C@@H](C)C1 (stereo partly drawn) [Example 67],,,,,,,,> 40,,,73,95
